According to patent US10092537B2, “Use for PAI-1 inhibitor” (RENASCIENCE CO., LTD., priority 2013, dated 2018):

What was measured:
[1] = test system: CML cells (32Dp210-GFP cells); test: Chronic myelogenous leukemia model mice, imatinib and compound c (Experimental Example 12); format: in vivo; conditions: imatinib 150 mg/kg/day alone
Procedure: Chronic myelogenous leukemia model mice prepared in the same manner as in Experimental Example 11 were divided into the following 3 groups (each group: n=10), and the groups were administered respective test drugs in accordance with the protocol shown in FIG. 15A.
(§1) Group 1: placebo group (physiological saline was administered via gavage)
(§2) Group 2: imatinib group (imatinib [150 mg/kg/day] was administered via gavage)
(§3) Group 3: imatinib+compound c group (imatinib [150 mg/kg/day] and compound c [10 mg/kg/day] were administered via gavage)
(§4) 8 days (day 8) after the day on which CML cells (32Dp210-GFP cells) were intravenously inoculated (day 0), administration of the test drugs to the groups was started. The placebo group and the imatinib group were administered the respective test drugs once a day from day 8 to day 14 (7 doses in total). The imatinib+compound c group was administered imatinib once a day from day 8 to day 14 (7 doses in total), and also administered compound c once a day from day 8 to day 14 (7 doses in total).

[2] = test system: CML cells (32Dp210-GFP cells); test: Chronic myelogenous leukemia model mice, imatinib and compound a (Experimental Example 11); format: in vivo, C3H/HeJ mice; conditions: imatinib 150 mg/kg/day alone
Procedure: p210(BCR-ABL) gene was inserted into a MIGR1 vector, and GFP cDNA was further incorporated as a reporter gene downstream of the gene (hereinafter, the vector is referred to as “p210-GFP”). p210-GFP was infected with 32D cells (C3H/HeJ mice cell line), and chronic myelogenous leukemia (hereinafter, referred to as “CML”) cells were prepared. 2.5×10^5 of the thus-obtained CML cells (32Dp210(BCR-ABL)-GFP cells, hereinafter, referred to as “32Dp210-GFP cells”) were intravenously administered into the retro-orbital plexus of C3H/HeJ mice. 7 to 10 days after the transplantation, the abundance ratio of GFP cells in the peripheral blood was analyzed, and mice with more than 3% of abundance ratio were used as chronic myelogenous leukemia model mice in the following experiments.
15 chronic myelogenous leukemia model mice prepared by using the procedure described above were divided into the following 3 groups (each group: n=15), and a test drug was administered to the mice in accordance with the protocol shown in FIG. 15A.
as §1, §2
Group 3: imatinib+compound a group (imatinib [150 mg/kg/day] and compound a [100 mg/kg/day] were administered via gavage)
(§5) 10 days (day 10) after the day on which CML cells were intravenously inoculated (day 0), administration of test drugs to the groups was started. The placebo group and the imatinib group were administered the respective test drugs once a day from day 10 to day 16 (7 doses in total). The imatinib+compound a group was administered imatinib once a day from day 10 to day 16 (7 doses in total), and also administered compound a once a day from day 10 to day 14 (5 doses in total).
As described above, 32Dp210-GFP includes GFP as a reporter gene, and thus, the CML cells having 32Dp210-GFP inserted (32Dp210-GFP cells) are GFP-positive. Therefore, using FACS (FACS (BD Biosciences: FACSCalibur), the frequency of CML cells (32Dp210-GFP cells) in mononucleic cells of the bone marrow and spleen was measured and compared between the imatinib group and the imatinib+compound a group.

[3] = test system: CML cells; test: Chronic myelogenous leukemia model mice, imatinib with compound d or compound e (Experimental Example 17); format: in vivo; conditions: imatinib 150 mg/kg/day alone
Procedure: as §1, §2
Group 3: imatinib+compound d group (imatinib [150 mg/kg/day] and compound d [10 mg/kg/day] were administered via gavage)
Group 4: imatinib+compound e group (imatinib [150 mg/kg/day] and compound e [10 mg/kg/day] were administered via gavage)
8 days after (day 8) the day (day 0) on which CML cells were intravenously inoculated, administration of test drugs to the groups was started. The placebo group and the imatinib group were administered the respective test drugs once a day from day 8 to day 14 (7 doses in total). The imatinib+compound d group and imatinib+compound e group were administered imatinib once a day from day 8 to day 14 (7 doses in total), and also administered compound d or e once a day from day 8 to day 14 (7 doses in total).

[4] = test system: CML cells; test: Chronic myelogenous leukemia model mice, CML cells engrafted onto bone marrow by FACS (Experimental Example 15); format: in vivo
Procedure: Chronic myelogenous leukemia model mice prepared in accordance with the procedure of Experimental Example 11 (1) were divided into 3 groups (each group: n=15) and administered respective test drugs.
as §1, §2, §3
as §4, with “cells” for “cells (32Dp210-GFP cells)”, “of” for “of the”
CML cells engrafted onto bone marrow were analyzed by FACS immediately before the administration of a test drug (day 8; “immediately before antitumor agent treatment” in FIG. 19), immediately after the completion of administration of a test drug (day 14; “immediately after antitumor agent treatment” in FIG. 19), and day 28 from the start of administration of a test drug (day 36; “after 28 days” in FIG. 19). […] About 50% leukemia cells were grafted on the bone marrow immediately before administration of a test drug (day 8; “immediately before antitumor agent treatment” in FIG. 19). After the tumor-bearing mice were administered a test drug 7 times (day 14), the proportion of CML cells was analyzed. […] All of the mice in the group administered physiological saline died.

[5] = test system: CML cells; test: Chronic myelogenous leukemia model mice, imatinib, PAI-1 inhibitor and G-CSF neutralizing antibody (Experimental Example 14); format: in vivo
Procedure: In this experiment, whether G-CSF is involved in the effect was examined. Compound a was used as a PAI-1 inhibitor.
as §1
Group 2: IM group (imatinib [150 mg/kg/day] was administered via gavage)
Group 3: IM+anti-G-CSF group (imatinib [150 mg/kg/day] was administered via gavage, G-CSF neutralizing antibody [500 μg/kg/day] was subcutaneously administered)
Group 4: IM+TM group (imatinib [150 mg/kg/day] and compound a [100 mg/kg/day] were administered via gavage)
Group 5: IM+TM+anti-G-CSF group (imatinib [150 mg/kg/day] and compound a [100 mg/kg/day] were administered via gavage, and G-CSF neutralizing antibody [500 μg/kg/day] was subcutaneously administered)
The day on which CML cells were inoculated was set as day 0, and each test drug was administered from day 8 to day 14 (7 doses in total).

[6] = test system: CML cells; test: Chronic myelogenous leukemia model mice, compound a alone, imatinib, combination (Experimental Example 16); format: in vivo; conditions: imatinib 150 mg/kg/day alone
Procedure: as §1
Group 2: compound a group (compound a [100 mg/kg/day] was administered via gavage)
Group 3: imatinib group (imatinib [150 mg/kg/day] was administered via gavage)
Group 4: imatinib+compound a group (imatinib [150 mg/kg/day] and compound a [100 mg/kg/day] were administered via gavage)
as §5, with “days after” for “days”, “10)” for “10) after”, “placebo group, the compound a group,” for “placebo group”, “day 16 (7” for “day 14 (5”

Cc1ccc(NC(=O)c2ccc(CN3CCN(C)CC3)cc2)cc1Nc1nccc(-c2cccnc2)n1 [imatinib, reference compound]
survival [1]: all of the mice died by day 35 | median survival period ([1]; placebo 15.5 days): 23.5 days | frequency of 32Dp210-GFP cells in bone-marrow mononucleic cells [2]: about 55% | frequency of CML cells (32Dp210-GFP cells) in the spleen [2]: about 76% | survival [2]: all of the mice died by day 40 | median survival period ([2]; placebo 14 days): 27 days | survival [3]: all of the mice died by day 40 | CML (leukemia) cells in the bone marrow ([4]; imatinib 150 mg/kg/day alone, day 8 to day 14, analysed day 36): 55.5% | proportion of CML cells in the bone marrow ([4]; imatinib alone, day 14, after 7 doses, about 50% before treatment): marked decrease | median survival period ([5]; IM group: imatinib 150 mg/kg/day alone, placebo 15 days): 22 days | survival ([5]; IM group: imatinib alone): all of the mice died by day 30 | survival ([5]; IM+anti-G-CSF group): all of the mice died by day 30 | median survival period ([5]; IM+anti-G-CSF group: imatinib 150 mg/kg/day + G-CSF neutralizing antibody 500 μg/kg/day): 23 days | survival [6]: all of the mice died by day 40
